This is an account of results in ChEMBL document CHEMBL4396910, “Endomorphin-2 analogs containing modified tyrosines: Biological and theoretical investigation of the influence on conformation and pharmacological profile” (Eur J Med Chem, 2019).

In series [1] the target is T1, Mu-type opioid receptor (Homo sapiens, UniProt P35372). Put plainly: Displacement of [3H]DAMGO from human recombinant MOR expressed in CHO cell membranes incubated for 2 hrs by liquid scintillation counting method. A general note: In a radioligand displacement assay an active substance lowers the binding of a labelled ligand.
T1 sequence (P35372 whole entry): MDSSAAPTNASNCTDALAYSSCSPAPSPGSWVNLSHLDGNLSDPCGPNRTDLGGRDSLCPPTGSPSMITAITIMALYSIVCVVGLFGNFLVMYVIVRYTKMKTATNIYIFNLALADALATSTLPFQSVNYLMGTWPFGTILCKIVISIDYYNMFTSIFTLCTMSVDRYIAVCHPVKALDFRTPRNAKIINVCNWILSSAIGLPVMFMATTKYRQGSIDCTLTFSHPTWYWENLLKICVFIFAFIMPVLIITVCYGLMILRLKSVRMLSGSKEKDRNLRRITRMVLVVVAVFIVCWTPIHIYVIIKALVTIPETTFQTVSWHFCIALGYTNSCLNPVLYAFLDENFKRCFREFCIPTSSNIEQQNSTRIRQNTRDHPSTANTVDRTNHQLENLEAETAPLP
Series [2] addresses Delta-type opioid receptor (Homo sapiens, UniProt P41143). Kind of series: Displacement of [3H]deltrophin-2 from human recombinant DOR expressed in CHO cell membranes incubated for 2 hrs by liquid scintillation counting method.
For series [3], the target named is Kappa-type opioid receptor (Homo sapiens, UniProt P41145). Kind of series: Displacement of [3H]U-69593 from human recombinant KOR expressed in CHO cell membranes incubated for 2 hrs by liquid scintillation counting method.
Chain of Kappa-type opioid receptor (P41145 whole entry): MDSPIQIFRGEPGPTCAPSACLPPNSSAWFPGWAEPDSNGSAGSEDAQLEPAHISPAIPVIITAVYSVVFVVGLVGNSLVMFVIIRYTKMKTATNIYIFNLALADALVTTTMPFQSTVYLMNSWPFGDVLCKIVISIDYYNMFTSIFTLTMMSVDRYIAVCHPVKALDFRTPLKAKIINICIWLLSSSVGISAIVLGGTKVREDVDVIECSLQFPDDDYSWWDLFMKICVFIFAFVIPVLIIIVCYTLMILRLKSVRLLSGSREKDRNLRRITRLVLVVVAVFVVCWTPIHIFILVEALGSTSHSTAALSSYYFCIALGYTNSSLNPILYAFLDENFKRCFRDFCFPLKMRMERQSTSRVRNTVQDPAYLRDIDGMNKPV
Series [4] can be described thus: n-Octanol/water partition coefficient, log P of compound at 50 ug at pH 7.4 measured after 2 mins by RP-HPLC analysis. The format is physicochemical. The note with it: pH 7.4, 2 min.
Series [5] has as its target T1, Mu-type opioid receptor. Put plainly: Agonist activity at human recombinant MOR expressed in CHO cells co-expressing C-terminally modified Galphaqi5 assessed as induction of calcium mobilization by Fluo-4AM dye-based fluorescence assay. The format is functional, cell-based.
Series [6] in a line: Retention time of the compound by RP-HPLC analysis. The format is physicochemical.
Series [7] deals with T1, Mu-type opioid receptor. Kind of series: Agonist activity at human recombinant MOR expressed in CHO cells co-expressing C-terminally modified Galphaqi5 assessed as induction of calcium mobilization by Fluo-4AM dye-based fluorescence assay relative to endomorphin-2. The series is classed as functional, cell-based. A general note: Calcium assays in cells follow changes in intracellular calcium, usually with a dye or a luminescent sensor.

The target of series [8] is T1, Mu-type opioid receptor. Kind of series: Potency index, ratio of endomorphin Ki to compound Ki for human recombinant MOR expressed in CHO cell membranes using [3H]DAMGO by radioligand binding assay.

Chain of Delta-type opioid receptor (P41143 whole entry): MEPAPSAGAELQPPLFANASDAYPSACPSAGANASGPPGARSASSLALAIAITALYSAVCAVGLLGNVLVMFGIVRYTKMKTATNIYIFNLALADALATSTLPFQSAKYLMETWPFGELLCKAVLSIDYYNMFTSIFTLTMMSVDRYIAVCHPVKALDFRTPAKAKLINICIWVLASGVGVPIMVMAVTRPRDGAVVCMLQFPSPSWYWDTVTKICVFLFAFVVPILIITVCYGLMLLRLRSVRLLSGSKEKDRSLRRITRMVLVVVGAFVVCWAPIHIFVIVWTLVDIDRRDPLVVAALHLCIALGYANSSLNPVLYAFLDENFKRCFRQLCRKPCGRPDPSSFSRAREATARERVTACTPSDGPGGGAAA

The term Ki denotes a measure of affinity in units of concentration, obtained from inhibition or displacement. One may read the logP as a log measure of how a compound divides between an organic and an aqueous phase. Low values mean a more hydrophilic compound, high ones a more lipophilic compound. In general, EC50 refers to the concentration that produces a half-maximal response. On to `Cc1cc(C[C@H](N)C(=O)N2CCC[C@H]2C(=O)N[C@@H](Cc2ccccc2)C(=O)N[C@@H](Cc2ccccc2)C(N)=O)cc(C)c1O`, for which the Ki in series [1] amounted to 4.98 nM; in series [2], 5260 nM; in series [3], 4650 nM. Besides, in series [4], the logP worked out at 1.78. Also, the EC50 in series [5] is 9.55 nM. Besides, in series [6], the Retention_time came to 16.508 min. Besides, in series [7], the Intrinsic activity worked out at 1.04.
On to `Cc1cc(O)c(Cl)c(C)c1C[C@H](N)C(=O)N1CCC[C@H]1C(=O)N[C@@H](Cc1ccccc1)C(=O)N[C@@H](Cc1ccccc1)C(N)=O`, for which the inhibitory constant (Ki) in series [1] turned out to be 0.26 nM; in series [2], 900 nM; in series [3] it was 37.3 nM. The logP in series [4] worked out at 1.8. Further, in series [5], the half-maximal effective concentration (EC50) is 0.617 nM. Moreover, in series [6], the Retention_time is recorded as 16.122. Also, the Intrinsic activity in series [7] was 0.92.
As for `NC(=O)[C@H](Cc1ccccc1)NC(=O)[C@H](Cc1ccccc1)NC(=O)[C@@H]1CCCN1C(=O)[C@@H](N)Cc1cccc(O)c1`, the values for the Ki in series [1], in series [2] and in series [3] were 18.9 nM, 12700 nM and 9150 nM, respectively. The log partition coefficient (logP) in series [4] is given as 1.37. Besides, in series [5], the EC50 was 44.7 nM. In addition, the Retention_time in series [6] turned out to be 15.168 min. Besides, the Intrinsic activity in series [7] was found to be 0.87.
For `COc1cc(C[C@H](N)C(=O)N2CCC[C@H]2C(=O)N[C@@H](Cc2ccccc2)C(=O)N[C@@H](Cc2ccccc2)C(N)=O)cc(OC)c1O`, the inhibition constant (Ki) in series [1] was 4.38 nM; in series [2] it was 10600 nM; in series [3], 4480 nM. This molecule also yielded a lipophilicity (logP) in series [4] of 0.67. Besides, the EC50 in series [5] is 7.94 nM. The same molecule gave a Retention_time in series [6] of 14.83 min. In addition, in series [7], the Intrinsic activity was determined as 1.1.
In turn, `NC(=O)[C@H](Cc1ccccc1)NC(=O)[C@H](Cc1ccccc1)NC(=O)[C@@H]1CCCN1C(=O)[C@@H](N)Cc1ccc(O)cc1` [ENDOMORPHIN 2] registered a logP in series [4] of 1.13.
With `Cc1cc(O)cc(C)c1C[C@H](N)C(=O)N1CCC[C@H]1C(=O)N[C@@H](Cc1ccccc1)C(=O)N[C@@H](Cc1ccccc1)C(N)=O`, the Ki amounted to 0.81 nM in series [1] and 283 nM in series [2]. This molecule registered a logP in series [4] of 1.98. In addition, in series [5], the EC50 is 1.66 nM. For the same molecule, in series [6], the Retention_time was 16.484 min. In addition, in series [7], the Intrinsic activity is 0.91. The Ratio Ki in series [8] amounted to 4.
